Measurements as given in paper PMC10003956, “To the Understanding of Catalysis by D-Amino Acid Transaminases: A Case Study of the Enzyme from Aminobacterium colombiense” (Molecules, 2023).

Assays:
[1] = target: T1, AmicoTA (Aminobacterium colombiense, UniProt D5EHC5); test: half-reaction of PLP form, absorbance at […] nm; format: binding
T1 construct: gene Amico_1844; N-terminal His6-TEV tag kept for kinetics, cut for crystals; E. coli Rosetta (DE3) pLysS

[2] = target: T1, AmicoTA; test: X-ray crystal structure, […] Å; format: binding; details: covalent, Schiff base with K142; tag-free protein

T1 sequence (D5EHC5 entry or part of it): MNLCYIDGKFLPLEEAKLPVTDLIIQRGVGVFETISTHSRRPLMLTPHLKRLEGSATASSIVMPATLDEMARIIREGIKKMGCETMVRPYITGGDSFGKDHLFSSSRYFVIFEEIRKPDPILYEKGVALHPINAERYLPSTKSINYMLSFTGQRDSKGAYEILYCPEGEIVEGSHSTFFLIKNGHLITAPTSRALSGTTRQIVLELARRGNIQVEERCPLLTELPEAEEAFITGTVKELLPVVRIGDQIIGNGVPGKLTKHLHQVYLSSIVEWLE

Row | Kd [1] [mM] | X-ray crystal structure, 1.9 Å [2] | SMILES
1 | 19 ± 3 |  | N[C@H](Cc1ccccc1)C(=O)O [D-phenylalanine]
2 | 2.1 ± 0.2 |  | N[C@H](CCC(=O)O)C(=O)O [D-glutamate]
3 |  | bound via Schiff base linkage with K142 | Cc1ncc(COP(=O)(O)O)c(C=O)c1O [PLP]
4 | 50 ± 6 |  | C[C@@H](N)C(=O)O [D-alanine]
5 | 100 ± 10 |  | CC(C)C[C@@H](N)C(=O)O [D-leucine]
